The results in this text go back to patent US10870641B2, “Pyridazinones as PARP7 inhibitors” (Ribon Therapeutics Inc., priority 2018, dated 2020).

For one test, the target named is TIPARP (PARP7) (Homo sapiens (Human), UniProt Q7Z3E1). Kind of test: Enzymatic assay for inhibition of PARP7: displacement of biotinylated Probe A (TR-FRET). Conditions: TR-FRET displacement of Probe A from TIPARP. The test is classed as binding. The method, then: 20 nL of a dose response curve of each test compound was spotted in black 384-well polystyrene proxiplates (Perkin Elmer) using a Mosquito (TTP Labtech). […] Reactions were incubated at 25° C. for an additional 30 min, then read on an Envision plate reader equipped with a LANCE/DELFIA top mirror (Perkin Elmer) using excitation of 320 nm and emission of 615 nm and […] with a 90 μs delay. The ratio of the 665/615 nm emission were calculated for each well to determine the amount of complex of TIPARP and Probe A in each well. […] The Hill Coefficient is normally allowed to float but may also be fixed at 1 in a 3-parameter fit. Y is the % inhibition and X is the compound concentration.
TIPARP (PARP7), sequence (Q7Z3E1 whole entry): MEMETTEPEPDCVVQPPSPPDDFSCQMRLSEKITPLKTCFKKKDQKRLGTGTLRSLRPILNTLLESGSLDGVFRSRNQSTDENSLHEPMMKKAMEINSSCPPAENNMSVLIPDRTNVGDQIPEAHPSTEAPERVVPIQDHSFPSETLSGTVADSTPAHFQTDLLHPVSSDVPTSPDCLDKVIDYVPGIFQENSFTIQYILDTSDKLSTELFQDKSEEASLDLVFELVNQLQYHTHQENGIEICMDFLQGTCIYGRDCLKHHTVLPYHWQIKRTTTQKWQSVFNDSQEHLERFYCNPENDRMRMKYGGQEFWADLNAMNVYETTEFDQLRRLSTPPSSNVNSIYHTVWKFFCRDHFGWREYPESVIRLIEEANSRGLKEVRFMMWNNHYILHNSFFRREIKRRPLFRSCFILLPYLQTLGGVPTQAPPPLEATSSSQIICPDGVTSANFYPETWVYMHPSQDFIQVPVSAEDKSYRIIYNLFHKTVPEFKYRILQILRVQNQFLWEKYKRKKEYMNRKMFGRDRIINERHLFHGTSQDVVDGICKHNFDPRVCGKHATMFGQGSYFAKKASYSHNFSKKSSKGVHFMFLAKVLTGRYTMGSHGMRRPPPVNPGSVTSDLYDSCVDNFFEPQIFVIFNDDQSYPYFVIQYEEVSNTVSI
In general terms: TR-FRET usually uses a lanthanide donor and a delayed reading to cut background.

In test [1] the test system is NCI-H1373 lung cancer cells. The test can be described thus: Inhibition of cancer cell growth in NCI-H1373 cells (FIG. 2). It counts as cell-based, human.
The target in a further test is PARP7 (Homo sapiens (Human), UniProt Q7Z3E1). The test can be described thus: PARP7 inhibition potency (Table A-1). It counts as binding. Conditions: comparison of separated isomers; see Table A-1.
PARP7, sequence (Q7Z3E1 whole entry): as above
Another test deals with CT26 cells. The test can be described thus: Inhibition of tumor growth, CT26 murine syngeneic model, subcutaneous dosing. It counts as in vivo. To be noted: BALB/c mice, Compound 98 500 mg/kg S.C. QD, Compound 93A 100 mg/kg S.C. BID, 21 days. The source says: (§1) Example G: Inhibition of Tumor Growth by Treatment with PARP7 Inhibitors
For the CT26 study BALB/c mice were inoculated subcutaneously at the right flank with CT26 cells for tumor development. Four days after tumor inoculation, 36 mice with tumor size ranging from 40-55 mm^3 (average tumor size 47 mm^3) were selected and assigned into 3 groups using stratified randomization with 12 mice in each group based upon their tumor volumes. The treatments were started from the next day post randomization (defined randomization day as day 0) and were treated with vehicle (0.5% methylcellulose+0.2% Tween 80), Compound 98 (500 mg/kg S.C. QD*21 days), Compound 93A (100 mg/kg S.C. BID*21 days) respectively. The tumor sizes were measured three times per week during the treatment. The entire study was terminated on day 21.
(§2) Mean tumor volume and SEM for both studies are plotted. Statistical significance, calculated using two-tailed unpaired t-tests in which each treatment group was compared to vehicle control, is indicated by an asterisk. Statistics were performed on groups with less than 20% animal loss (D21 for CT26, D17 for 4T1).

The subject of test [2] is RAW264.7 mouse macrophages. Kind of test: Induction of interferon-beta levels in RAW264.7 macrophages in the presence of STING agonist DMXAA (FIG. 3). It counts as cell-based.
The subject of test [3] is CT26 mouse colon cancer cells. Kind of test: Induction of interferon-beta levels in CT26 cells in the presence of STING agonist DMXAA (FIG. 3). It counts as cell-based.
In another test the test system is 4T1-luc2-1A4 cells. Kind of test: Inhibition of tumor growth, 4T1 murine syngeneic model, subcutaneous dosing. It counts as in vivo. Conditions: 4T1 orthotopic syngeneic, BALB/c mice; Compound 98 500 mg/kg S.C. QD, Compound 93A 100 mg/kg S.C. BID, 21 days.
Source text: as §1
For the 4T1 study female BALB/c mice were inoculated orthotopically in the mammary fat pad with 4T1-luc2-1A4 cells for tumor development. Eight days after tumor inoculation, 45 mice with tumor size ranging from 63-88 mm^3 (average tumor size 67 mm^3) were selected and assigned into 3 groups using stratified randomization with 15 mice in each group based upon their tumor volumes. The treatments were started from the next day post randomization (defined randomization day as D0) and were treated with vehicle (0.5% methylcellulose+0.2% Tween 80), Compound 98 (500 mg/kg S.C. QD*21 days), Compound 93A (100 mg/kg S.C. BID*21 days) respectively. The tumor sizes were measured three times per week during the treatment. The entire study was terminated on D20.
as §2

pIC50: −log10 of the molar value.

In the case of `O=C(CCOCCNc1cn[nH]c(=O)c1C(F)(F)F)N1CCN(c2ccc(Cl)cn2)CC1` [Example 506, 5-[(2-[3-[4-(5-Chloropyridin-2-yl)piperazin-1-yl]-3-oxopropoxy]ethyl)amino]-4-(trifluoromethyl)-2,3-dihydropyridazin-3-one], the pIC50 (commonly the IC50 on a negative log10 scale, so that one unit is a factor of ten) at TIPARP (PARP7) was above 7.00. The compound `N#Cc1ccc(N2CCN(C(=O)c3cncc(OC[C@H]4c5ccccc5CN4c4cn[nH]c(=O)c4C(F)(F)F)n3)CC2)nc1` [Example 72B, 6-[4-[(6-[[(1R)-2-[6-oxo-5-(trifluoromethyl)-1,6-dihydropyridazin-4-yl]-2,3-dihydro-1H-isoindol-1-yl]methoxy]pyrazin-2-yl)carbonyl]piperazin-1-yl]pyridine-3-carbonitrile] gave a pIC50 on TIPARP (PARP7) above 7.00.

Regarding `COC[C@H](COc1cn[nH]c(=O)c1C(F)(F)F)OCCC(=O)N1CCN(c2ncc(Cl)cn2)CC1` [Example 560B, 5-[(2R)-2-[3-[4-(5-chloropyrimidin-2-yl)piperazin-1-yl]-3-oxopropoxy]-3-methoxypropoxy]-4-(trifluoromethyl)-2,3-dihydropyridazin-3-one], the pIC50 at TIPARP (PARP7) is 6.00 to 7.00.

The compound `N#Cc1ccc(N2CCC3C2CCN3C(=O)CCOC[C@@H]2CCCN2c2cn[nH]c(=O)c2C(F)(F)F)nc1` (stereo partly drawn) [Example 110, 6-[4-(3-[[(2S)-1-[6-oxo-5-(trifluoromethyl)-1,6-dihydropyridazin-4-yl]pyrrolidin-2-yl]methoxy]propanoyl)-octahydropyrrolo[3,2-b]pyrrol-1-yl]pyridine-3-carbonitrile] had a pIC50 at TIPARP (PARP7) above 7.00. `N#Cc1ccc(N2CCN(C(=O)CCO[C@H]3Cc4ccccc4[C@@H]3Nc3cn[nH]c(=O)c3C(F)(F)F)CC2)nc1` [Example 537A] gave a pIC50 on TIPARP (PARP7) of at most 6.00. `N#Cc1ccc(N2CCN(C(=O)c3cccc(OCCOc4cccc5c4CN(c4cn[nH]c(=O)c4C(F)(F)F)C5)c3)CC2)nc1` [Example 39, 6-[4-([3-[2-([2-[6-Oxo-5-(trifluoromethyl)-1,6-dihydropyridazin-4-yl]-2,3-dihydro-1H-isoindol-4-yl]oxy)ethoxy]phenyl]carbonyl)piperazin-1-yl]pyridine-3-carbonitrile]: in test [1], the “growth of NCI-H1373 lung cancer cells” value is “dose-dependent decrease in growth”. Turning to `N#Cc1ccc(N2CCN(C(=O)c3ccnc(OC[C@@H]4c5ccccc5CN4c4cn[nH]c(=O)c4C(F)(F)F)n3)CC2)nc1` [Example 38A, 6-[4-[(2-[[(1S)-2-[6-Oxo-5-(trifluoromethyl)-1,6-dihydropyridazin-4-yl]-2,3-dihydro-1H-isoindol-1-yl]methoxy]pyrimidin-4-yl)carbonyl]piperazin-1-yl]pyridine-3-carbonitrile], at TIPARP (PARP7), the pIC50 is above 7.00. For `N#Cc1ccc(N2CCN(C(=O)C[C@H]3CC[C@@H]([C@@H]4CCCN4c4cn[nH]c(=O)c4C(F)(F)F)O3)CC2)nc1` [Example 141B, 6-(4-[2-[(2R,5S)-5-[(2S)-1-[6-oxo-5-(trifluoromethyl)-1,6-dihydropyridazin-4-yl]pyrrolidin-2-yl]oxolan-2-yl]acetyl]piperazin-1-yl)pyridine-3-carbonitrile], the “relative potency of the enantiomers” value at PARP7 is “more potent enantiomer”.

In turn, `O=C(COC[C@@H]1CCCN1c1cn[nH]c(=O)c1C(F)(F)F)N[C@H]1CC[C@H](Nc2ccccn2)CC1` [Example 80A, 2-[[(2S)-1-[6-oxo-5-(trifluoromethyl)-1,6-dihydropyridazin-4-yl]pyrrolidin-2-yl]methoxy]-N-[(1r,4r)-4-[(pyridin-2-yl)amino]cyclohexyl]acetamide] showed a negative-log IC50 (pIC50) at TIPARP (PARP7) of 6.00 to 7.00. Consider `N#Cc1ccc(N2CCN(C(=O)CCOC[C@@H]3CCCN3c3cn[nH]c(=O)c3C(F)(F)F)CC2)nc1` [Example 98, 6-[4-(3-[[(2S)-1-[6-Oxo-5-(trifluoromethyl)-1,6-dihydropyridazin-4-yl]pyrrolidin-2-yl]methoxy]propanoyl)piperazin-1-yl]pyridine-3-carbonitrile], for which the tumor growth entry in the test on CT26 cells and in the test with 4T1-luc2-1A4 cells was “significantly reduce tumor growth” in each case. The “interferon-beta (IFN-β) levels” value in test [2] and in test [3] was “induction of interferon-beta (IFN-β) levels” each time. Further, in test [1], the “growth of NCI-H1373 lung cancer cells” value is reported as “dose-dependent decrease in growth”. Consider `CC(C)(COCCC(=O)N1CCN(c2ccc(C#N)cn2)CC1)Nc1cn[nH]c(=O)c1C(F)(F)F` [Example 519, 6-[4-[3-(2-Methyl-2-[[6-oxo-5-(trifluoromethyl)-1,6-dihydropyridazin-4-yl]amino]propoxy)propanoyl]piperazin-1-yl]pyridine-3-carbonitrile], for which, on TIPARP (PARP7), the pIC50 is above 7.00. Regarding `N#Cc1ccc(N2CCN(C(=O)CNCC[C@H]3c4ccccc4CN3c3cn[nH]c(=O)c3C(F)(F)F)CC2)nc1` [Example 144A, 6-[4-[2-([2-[(1S)-2-[6-oxo-5-(trifluoromethyl)-1,6-dihydropyridazin-4-yl]-2,3-dihydro-1H-isoindol-1-yl]ethyl]amino)acetyl]piperazin-1-yl]pyridine-3-carbonitrile], the pIC50 on TIPARP (PARP7) was above 7.00. On to `N#Cc1ccc(N2CCN(C(=O)CCOC[C@@H]3c4ccccc4CN3c3cn[nH]c(=O)c3C(F)(F)F)CC2)nc1` [Example 93A, 6-[4-(3-[[(1S)-2-[6-oxo-5-(trifluoromethyl)-1,6-dihydropyridazin-4-yl]-2,3-dihydro-1H-isoindol-1-yl]methoxy]propanoyl)piperazin-1-yl]pyridine-3-carbonitrile], for which the tumor growth result in the test with CT26 cells and with 4T1-luc2-1A4 cells was “significantly reduce tumor growth” throughout. Also, the “growth of NCI-H1373 lung cancer cells” value in test [1] is “dose-dependent decrease in growth”. As to `COC[C@@H](COc1cn[nH]c(=O)c1C(F)(F)F)OCCC(=O)N1CCN(c2ncc(Cl)cn2)CC1` [Example 560A, 5-[(2S)-2-[3-[4-(5-chloropyrimidin-2-yl)piperazin-1-yl]-3-oxopropoxy]-3-methoxypropoxy]-4-(trifluoromethyl)-2,3-dihydropyridazin-3-one], the pIC50 on TIPARP (PARP7) was above 7.00.

Consider `O=C(CCOCCOc1cn[nH]c(=O)c1Cl)N1CCN(c2ccc(Cl)cn2)CC1` [Example 523, 4-Chloro-5-(2-[3-[4-(5-chloropyridin-2-yl)piperazin-1-yl]-3-oxopropoxy]ethoxy)-2,3-dihydropyridazin-3-one], for which the pIC50 on TIPARP (PARP7) was above 7.00.

Regarding `N#Cc1ccc(N2CCN(C(=O)c3ccc(OC[C@H]4c5ccccc5CN4c4cn[nH]c(=O)c4C(F)(F)F)cc3)CC2)nc1` [Example 35B, 6-[4-[(4-[[(1R)-2-[6-oxo-5-(trifluoromethyl)-1,6-dihydropyridazin-4-yl]-2,3-dihydro-1H-isoindol-1-yl]methoxy]phenyl)carbonyl]piperazin-1-yl]pyridine-3-carbonitrile], the pIC50 on TIPARP (PARP7) was 6.00 to 7.00. On the same count and under the same terms, to `N#Cc1ccc(N2CCN(C(=O)c3ccnc(OC[C@H]4c5ccccc5CN4c4cn[nH]c(=O)c4C(F)(F)F)c3)CC2)nc1` [Example 36A, 6-[4-[(2-[[(1R)-2-[6-oxo-5-(trifluoromethyl)-1,6-dihydropyridazin-4-yl]-2,3-dihydro-1H-isoindol-1-yl]methoxy]pyridin-4-yl)carbonyl]piperazin-1-yl]pyridine-3-carbonitrile] belongs at most 6.00.
